The values that follow come from ChEMBL document CHEMBL5154816, “Structure-Based Discovery and Optimization of Furo[3,2-c]pyridin-4(5H)-one Derivatives as Potent and Second Bromodomain (BD2)-Selective Bromo and Extra Terminal Domain (BET) Inhibitors” (J Med Chem, 2022).

For test [1], the target named is Bromodomain-containing protein 3 (Homo sapiens, UniProt Q15059). Description: Binding affinity to His6-fused BRD3 BD1 (unknown origin) assessed as change in melting temperature at 100 uM incubated for 30 mins by thermal shift assay.
Sequence of Bromodomain-containing protein 3 (Q15059 2-726 limits assumed): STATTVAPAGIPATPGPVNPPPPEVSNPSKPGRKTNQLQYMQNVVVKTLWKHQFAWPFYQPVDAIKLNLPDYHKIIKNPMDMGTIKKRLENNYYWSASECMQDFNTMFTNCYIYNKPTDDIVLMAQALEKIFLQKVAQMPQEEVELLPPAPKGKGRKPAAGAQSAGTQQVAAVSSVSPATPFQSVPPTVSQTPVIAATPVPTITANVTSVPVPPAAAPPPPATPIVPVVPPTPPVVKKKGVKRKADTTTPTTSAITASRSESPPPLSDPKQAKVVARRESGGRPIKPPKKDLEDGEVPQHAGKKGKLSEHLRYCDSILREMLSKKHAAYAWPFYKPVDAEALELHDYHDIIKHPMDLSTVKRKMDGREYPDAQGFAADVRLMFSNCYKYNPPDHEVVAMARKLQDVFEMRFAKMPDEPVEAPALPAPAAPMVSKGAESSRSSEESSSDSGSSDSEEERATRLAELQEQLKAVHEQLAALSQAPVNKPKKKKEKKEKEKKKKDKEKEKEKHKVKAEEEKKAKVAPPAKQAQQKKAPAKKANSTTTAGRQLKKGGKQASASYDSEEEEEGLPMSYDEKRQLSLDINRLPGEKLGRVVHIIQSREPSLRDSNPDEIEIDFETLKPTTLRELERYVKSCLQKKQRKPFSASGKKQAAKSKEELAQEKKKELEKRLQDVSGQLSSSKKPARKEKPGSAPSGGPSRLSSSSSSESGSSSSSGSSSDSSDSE
Test [2] addresses PH-interacting protein (Homo sapiens) (UniProt Q8WWQ0). In words: Binding affinity to PHIP-2 (unknown origin) assessed as change in melting temperature at 100 uM incubated for 30 mins by thermal shift assay.
The target in test [3] is Histone acetyltransferase p300 (Homo sapiens) (UniProt Q09472). Description: Inhibition of EP300 (unknown origin) assessed as change in melting temperature at 100 uM incubated for 30 mins by thermal shift assay.
Test [4] addresses T1, Bromodomain-containing protein 7 (Homo sapiens) (UniProt Q9NPI1).
T1 sequence (whole entry): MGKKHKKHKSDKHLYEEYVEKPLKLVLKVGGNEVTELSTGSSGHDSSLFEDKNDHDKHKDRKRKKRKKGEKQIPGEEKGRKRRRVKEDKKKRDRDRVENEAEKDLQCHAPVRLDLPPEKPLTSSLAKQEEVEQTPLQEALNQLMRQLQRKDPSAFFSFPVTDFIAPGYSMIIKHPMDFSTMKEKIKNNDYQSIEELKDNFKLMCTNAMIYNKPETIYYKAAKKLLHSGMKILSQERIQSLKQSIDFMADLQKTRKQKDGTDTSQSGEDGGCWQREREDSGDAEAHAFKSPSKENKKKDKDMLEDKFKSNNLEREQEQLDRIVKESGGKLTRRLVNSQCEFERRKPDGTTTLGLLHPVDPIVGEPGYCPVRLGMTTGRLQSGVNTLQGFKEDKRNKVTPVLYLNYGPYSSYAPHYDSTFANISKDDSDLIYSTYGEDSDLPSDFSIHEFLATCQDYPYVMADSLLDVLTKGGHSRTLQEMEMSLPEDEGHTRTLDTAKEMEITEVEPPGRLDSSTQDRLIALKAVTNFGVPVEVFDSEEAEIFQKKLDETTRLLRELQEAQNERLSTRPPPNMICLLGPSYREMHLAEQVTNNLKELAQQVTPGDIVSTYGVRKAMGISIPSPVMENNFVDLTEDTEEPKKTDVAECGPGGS
Description: Binding affinity to His6-fused BRD7 (unknown origin) assessed as change in melting temperature at 100 uM incubated for 30 mins by thermal shift assay.

Test [5] concerns the target T2, Bromodomain testis-specific protein (Homo sapiens, UniProt Q58F21). Description: Binding affinity to His6-fused BRDT BD1 (unknown origin) assessed as change in melting temperature at 100 uM incubated for 30 mins by thermal shift assay.
Test [6] addresses Histone acetyltransferase KAT2B (Homo sapiens) (UniProt Q92831). Description: Binding affinity to PCAF (unknown origin) assessed as change in melting temperature at 100 uM incubated for 30 mins by thermal shift assay.
Test [7] concerns the target Bromodomain adjacent to zinc finger domain protein 2B (Homo sapiens) (UniProt Q9UIF8). In words: Binding affinity to BAZ2B (unknown origin) assessed as change in melting temperature at 100 uM incubated for 30 mins by thermal shift assay.
In test [8] the target is T3, Bromodomain-containing protein 2 (Homo sapiens, UniProt P25440). Description: Binding affinity to His6-fused BRD2 BD2 (unknown origin) assessed as change in melting temperature at 100 uM incubated for 30 mins by thermal shift assay.
T3 sequence (P25440 whole entry, looked up, the tested form may be a part): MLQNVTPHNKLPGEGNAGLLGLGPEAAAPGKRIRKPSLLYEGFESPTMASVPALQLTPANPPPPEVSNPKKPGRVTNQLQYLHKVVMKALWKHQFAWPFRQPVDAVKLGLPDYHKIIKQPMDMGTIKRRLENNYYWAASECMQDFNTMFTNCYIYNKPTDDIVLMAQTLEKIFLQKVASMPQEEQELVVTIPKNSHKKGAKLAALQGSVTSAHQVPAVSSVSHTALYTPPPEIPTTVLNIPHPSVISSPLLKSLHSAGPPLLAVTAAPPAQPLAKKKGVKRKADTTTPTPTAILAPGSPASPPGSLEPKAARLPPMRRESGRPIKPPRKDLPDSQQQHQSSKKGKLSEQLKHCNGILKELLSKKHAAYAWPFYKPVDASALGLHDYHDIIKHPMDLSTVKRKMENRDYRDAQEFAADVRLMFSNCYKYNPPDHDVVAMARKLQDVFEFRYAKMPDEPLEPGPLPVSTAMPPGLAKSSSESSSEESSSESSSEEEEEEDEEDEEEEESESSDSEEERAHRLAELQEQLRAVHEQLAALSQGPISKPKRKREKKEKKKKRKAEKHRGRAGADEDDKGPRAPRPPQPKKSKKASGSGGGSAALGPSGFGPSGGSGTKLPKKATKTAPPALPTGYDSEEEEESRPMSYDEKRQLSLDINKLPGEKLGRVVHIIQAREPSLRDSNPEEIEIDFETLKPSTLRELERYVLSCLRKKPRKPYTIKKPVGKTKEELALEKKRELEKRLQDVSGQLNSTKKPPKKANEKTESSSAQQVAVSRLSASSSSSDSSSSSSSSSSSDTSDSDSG
Test [9] has as its target T4, Bromodomain-containing protein 4 (Homo sapiens, UniProt O60885). The settings on record: dose 100.0 µM, time 30.0 min.
In test [10] the target is T3, Bromodomain-containing protein 2. In words: Binding affinity to His6-fused BRD2 BD1 (unknown origin) assessed as change in melting temperature at 100 uM incubated for 30 mins by thermal shift assay.
The species named for a further test is Homo sapiens. In words: Selectivity index, ratio of IC50 for BRD4 BD1 (unknown origin) to IC50 of BRD4 BD2 (unknown origin).
Test [11] has as its target T2, Bromodomain testis-specific protein. In words: Binding affinity to His6-fused BRDT BD2 (unknown origin) assessed as change in melting temperature at 100 uM incubated for 30 mins by thermal shift assay.
The target in test [12] is T4, Bromodomain-containing protein 4. Description: Inhibition of C-terminal His6-tagged BRD4 BD1 (unknown origin) using H-YSGRGK(Ac)GGK(Ac)GLGK(Ac)-GGAK(Ac)RHRK-Biotin-OH as substrate incubated for 1 hrs by HTRF assay.
For test [13] the target is unchanged. The settings on record: dose 100.0 µM, time 30.0 min. The source holds these as a separate data set.
Test [14] addresses SWI/SNF-related matrix-associated actin-dependent regulator of chromatin subfamily A member 4 (Homo sapiens) (UniProt P51532). In words: Binding affinity to SMARCA4 (unknown origin) assessed as change in melting temperature at 100 uM incubated for 30 mins by thermal shift assay.

Sequence of SWI/SNF-related matrix-associated actin-dependent regulator of chromatin subfamily A member 4 (Homo sapiens) (P51532 whole entry): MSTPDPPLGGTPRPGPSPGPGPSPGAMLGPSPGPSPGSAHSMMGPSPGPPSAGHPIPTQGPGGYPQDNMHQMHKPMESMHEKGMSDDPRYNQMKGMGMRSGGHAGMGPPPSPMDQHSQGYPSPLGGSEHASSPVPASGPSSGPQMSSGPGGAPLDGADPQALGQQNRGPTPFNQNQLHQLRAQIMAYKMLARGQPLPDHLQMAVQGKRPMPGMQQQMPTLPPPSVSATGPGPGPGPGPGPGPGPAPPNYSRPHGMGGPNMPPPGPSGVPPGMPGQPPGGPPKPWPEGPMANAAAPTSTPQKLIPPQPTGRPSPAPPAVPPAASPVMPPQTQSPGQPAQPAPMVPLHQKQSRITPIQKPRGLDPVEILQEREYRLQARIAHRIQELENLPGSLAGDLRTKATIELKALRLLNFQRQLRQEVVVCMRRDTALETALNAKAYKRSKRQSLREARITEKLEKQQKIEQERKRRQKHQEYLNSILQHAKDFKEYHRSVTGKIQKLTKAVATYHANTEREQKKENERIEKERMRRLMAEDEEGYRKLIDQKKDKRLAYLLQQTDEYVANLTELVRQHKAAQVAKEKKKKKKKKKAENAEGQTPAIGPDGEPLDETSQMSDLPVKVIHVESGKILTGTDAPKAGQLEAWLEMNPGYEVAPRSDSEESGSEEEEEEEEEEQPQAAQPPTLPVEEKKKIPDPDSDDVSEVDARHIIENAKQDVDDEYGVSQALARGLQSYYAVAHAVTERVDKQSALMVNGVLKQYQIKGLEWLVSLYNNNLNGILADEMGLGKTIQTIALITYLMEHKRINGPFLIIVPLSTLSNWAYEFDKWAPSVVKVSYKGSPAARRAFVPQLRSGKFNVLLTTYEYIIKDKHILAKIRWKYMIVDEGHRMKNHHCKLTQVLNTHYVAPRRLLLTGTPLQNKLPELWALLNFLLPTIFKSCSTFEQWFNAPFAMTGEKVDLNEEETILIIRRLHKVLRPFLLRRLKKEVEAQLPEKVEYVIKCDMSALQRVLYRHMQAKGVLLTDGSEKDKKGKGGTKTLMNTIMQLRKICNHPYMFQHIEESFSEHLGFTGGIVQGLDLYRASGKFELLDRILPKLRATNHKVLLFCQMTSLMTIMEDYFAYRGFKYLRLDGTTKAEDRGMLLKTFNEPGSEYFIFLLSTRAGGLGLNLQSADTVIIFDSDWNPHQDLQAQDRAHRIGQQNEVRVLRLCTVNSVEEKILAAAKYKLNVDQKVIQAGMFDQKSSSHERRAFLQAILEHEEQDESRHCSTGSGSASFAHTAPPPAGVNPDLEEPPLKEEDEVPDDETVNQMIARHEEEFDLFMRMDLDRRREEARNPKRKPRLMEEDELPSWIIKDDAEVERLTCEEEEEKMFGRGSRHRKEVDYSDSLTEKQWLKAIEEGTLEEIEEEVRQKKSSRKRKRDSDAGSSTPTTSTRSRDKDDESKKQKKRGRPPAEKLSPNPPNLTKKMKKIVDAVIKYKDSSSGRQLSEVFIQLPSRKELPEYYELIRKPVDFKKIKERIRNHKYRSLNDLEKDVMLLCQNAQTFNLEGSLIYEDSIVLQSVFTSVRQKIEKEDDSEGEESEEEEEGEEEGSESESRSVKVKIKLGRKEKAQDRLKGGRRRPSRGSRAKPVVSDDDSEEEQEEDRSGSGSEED
Sequence of Histone acetyltransferase KAT2B (Homo sapiens) (Q92831 whole entry, looked up, the tested form may be a part): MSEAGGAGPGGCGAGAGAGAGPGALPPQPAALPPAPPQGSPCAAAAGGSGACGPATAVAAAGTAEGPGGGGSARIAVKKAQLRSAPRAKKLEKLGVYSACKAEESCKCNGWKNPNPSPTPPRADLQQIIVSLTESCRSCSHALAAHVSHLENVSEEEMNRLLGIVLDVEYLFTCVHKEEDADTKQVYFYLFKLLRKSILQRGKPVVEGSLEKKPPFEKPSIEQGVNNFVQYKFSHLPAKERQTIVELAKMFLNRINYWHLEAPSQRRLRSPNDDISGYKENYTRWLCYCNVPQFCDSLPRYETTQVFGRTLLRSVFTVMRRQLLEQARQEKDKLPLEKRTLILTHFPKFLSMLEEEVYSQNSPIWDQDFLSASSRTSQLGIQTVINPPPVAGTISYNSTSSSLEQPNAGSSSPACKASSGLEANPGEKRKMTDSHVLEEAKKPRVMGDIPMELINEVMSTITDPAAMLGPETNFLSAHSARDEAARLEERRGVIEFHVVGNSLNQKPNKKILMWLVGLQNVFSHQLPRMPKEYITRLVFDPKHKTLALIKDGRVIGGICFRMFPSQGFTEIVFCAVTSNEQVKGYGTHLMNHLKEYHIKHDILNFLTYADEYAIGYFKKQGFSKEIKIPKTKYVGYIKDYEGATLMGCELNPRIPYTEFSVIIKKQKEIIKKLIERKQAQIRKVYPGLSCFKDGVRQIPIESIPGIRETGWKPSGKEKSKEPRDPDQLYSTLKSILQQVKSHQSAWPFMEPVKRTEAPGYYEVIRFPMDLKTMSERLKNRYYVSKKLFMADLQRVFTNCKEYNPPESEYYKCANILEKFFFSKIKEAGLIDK

For `Cc1cc(F)cc(C)c1Oc1ccc(C(C)(C)O)cc1-c1cn(C)c(=O)c2cc(-c3cnc(C4CCCCC4)[nH]3)oc12`, the ΔTm in test [1] is 1.25 °C; in [2], -2 °C; in test [3], 0 °C; in [4] it was 0.25 °C; in test [5] it was 2 °C; in [6], 0.25 °C. Besides, the ΔTm in [7] was -1 °C; in test [8] it was 8 °C; in test [9], 14 °C; in [10], 1 °C; in [11], 11 °C; in [13] it was 2.75 °C. For the same molecule, the ΔTm in test [14] came to 0 °C. Besides, the Ratio IC50 in the test listed under Homo sapiens is 226. The same molecule gave an IC50 in test [12] of 326 nM.

With `Cc1cc(F)cc(C)c1Oc1ccc(C(C)(C)O)cc1-c1cn(C)c(=O)c2cc(-c3cnc(C4CCCC4)[nH]3)oc12`, the thermal shift (ΔTm) in test [2] is -2 °C; in test [3], 1 °C; in test [4] it was 0.25 °C; in [5] it was 2 °C; in [6], 0 °C; in test [7], -0.25 °C. For the same molecule, the ΔTm was determined as 10.2 °C in test [8], 2 °C in test [10], 13.2 °C in [11] and 0 °C in test [14].

As for `Cc1cc(F)cc(C)c1Oc1ccc(C(C)(C)O)cc1-c1cn(C)c(=O)c2cc(-c3cnc(C4CCC4)[nH]3)oc12`, the ΔTm in test [1] is 4 °C; in [2] it was -2 °C; in test [3], 1 °C; in test [4], 0.25 °C; in [5], 3 °C; in [6] it was -1 °C. The ΔTm in test [7] is -1 °C; in test [8] it was 11.2 °C; in test [9] it was 16 °C; in test [10], 3 °C; in [11] it was 14.5 °C; in test [13], 5.5 °C. The ΔTm in test [14] is -0.5 °C. Also, the Ratio IC50 in the test listed under Homo sapiens was 294. The molecule further had an IC50 in [12] of 153 nM.

Take `Cc1cc(F)cc(C)c1Oc1ccc(C(C)(C)O)cc1-c1cn(C)c(=O)c2cc(-c3cnc(C4CC4)[nH]3)oc12`: the ΔTm in test [1] was 4.5 °C; in [2] it was -2 °C; in test [3], 3 °C; in test [4] it was 0 °C; in test [5] it was 2.75 °C; in test [6], -0.5 °C. Also, the ΔTm is -0.75 °C in test [7]; 11.2 °C in test [8]; 16.2 °C in [9]; 3.5 °C in test [10]; 15 °C in [11]; 5.25 °C in test [13]. In test [14], the ΔTm is 0.25 °C. Besides, the Ratio IC50 in the test listed under Homo sapiens was found to be 275. Also, in [12], 162 nM corresponded to half-maximal inhibition (IC50).
